Measured values published in patent EP0567205A1, “Use of opiate antagonists in the manufacture of agents for the diagnosis and therapy of hypothalamic function disorders” (Ferring Arzneimittel GmbH, priority 1986, dated 1988).
Entries after “also recorded” stand apart in the source; their conditions may differ.

Assays:
[1] = system: Patientinnen, die an hypothalamischer Amenorrhoe litten; experiment: Naltrexon administration to patients with hypothalamic amenorrhea (serial blood sampling for LH, FSH, prolactin and ovarian steroids; ultrasound); format: in vivo
From the text: Im Rahmen der vorliegenden Erfindung wurden Untersuchungen an Patientinnen mit hypothalamischer Amenorrhoe durchgeführt. Diese Untersuchungen haben überraschenderweise gezeigt, daß durch die Gabe des Opiat-Antagonisten Naltrexon eine Zunahme von Frequenz und Amplitude der LH und FSH Sekretion erreicht wird. Es kann daher davon ausgegangen werden, daß die endogene GnRH Sekretion durch den Opiat-Antagonisten vermehrt wird.
Die basale Gonadotropin Sekretion von Patientinnen, die an hypothalamischer Amenorrhoe litten, wurde durch Bestimmung von LH und FSH, Prolactin und Ovarien-Steroiden in ßlutproben bewertet, die alle zehn Minuten während 24 Stunden entnommen wurden. Naltrexon wurde dann in einer Dosis von 50 mg pro Tag während 24 oder 28 Tagen verabreicht. 5 Tage und 14 Tage nach dem Beginn der Naltrexonverabreichung wurden wiederholte Blutproben entnommen. An den übrigen Tagen wurden täglich Blutproben entnommen und es wurde eine Ultraschalluntersuchung nach der Naltrexonverabreichung sowie einige Tage danach durchgeführt. Es wurden folgende Ergebnisse ermittelt:
Auf die Verabreichung von Naltrexon folgte eine Zunahme der Frequenz und der Amplitude der pulsatielen Gonadotropin Sekretion sowie eine Zunahme der mittleren LH und FSH Serumkonzentration sowie der Entwicklung der Gonaden-Steroid Sekretion und der Follikel, was durch Ultraschall festgestellt wurde.

[2] = general statement on the known drug; oral administration possible; cited from earlier work
[3] = hypothalamic amenorrhea, 50 mg pro Tag während 24 oder 28 Tagen
[4] = patients with hypothalamic amenorrhea, summary statement

O=C1CC[C@@]2(O)[C@H]3Cc4ccc(O)c5c4[C@@]2(CCN3CC2CC2)C1O5 (stereo partly drawn) [Naltrexon, 17-(Cyclopropylmethyl)-4,5-epoxy-3,14-dihydroxymorphinan-6-on]
Entwicklung der Follikel ([1]; by ultrasound, hypothalamic amenorrhea, 50 mg pro Tag während 24 oder 28 Tagen): Zunahme
Amplitude der pulsatielen Gonadotropin Sekretion [1, 3]: Zunahme
Entwicklung der Gonaden-Steroid Sekretion [1, 3]: Zunahme
Frequenz der pulsatielen Gonadotropin Sekretion [1, 3]: Zunahme
mittlere FSH Serumkonzentration [1, 3]: Zunahme
mittlere LH Serumkonzentration [1, 3]: Zunahme
Menstruation nach Absetzen des Mittels ([1]; patients who menstruated after withdrawal, hypothalamic amenorrhea, 50 mg pro Tag während 24 oder 28 Tagen): Sämtliche Patientinnen menstruierten
Ovulation ([1]; patients who ovulated, hypothalamic amenorrhea, 50 mg pro Tag während 24 oder 28 Tagen): führte zur Normalisierung der Gonadotropin-Sekretion, zur Ovulation; also recorded: Eine von 3 Patientinnen ovulierte
Bildung eines Corpus luteum [1, 4]: zur Bildung eines Corpus luteum
Gonadotropin-Sekretion [1, 4]: Normalisierung
menstrueller Zyklus [1, 4]: Normalisierung
Verweildauer im Plasma [2]: lange
